Test results taken from US12077503B2, “Substituted cyclic amides and their use as herbicides” (FMC CORPORATION, priority 2015, dated 2024).

Key:
Type in all cases: in vivo
[1] = tested on: barnyardgrass (Echinochloa crus-galli); experiment: Test B flooded paddy test; settings: Echinochloa crus-galli, 250 g ai/ha, Flood; 0 to 100 scale where 0 is no effect and 100 is complete control; read-out: Barnyardgrass plant response rating
In short: (§1)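 Flooding to 3 cm over soil accompanied treatment, which consisted of adding compound to the standing water around 2-leaf plants; depth was then maintained. Visual assessment versus controls followed at 13 to 15 d (scale 0–100, 0 meaning no effect).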

[2] = tested on: ducksalad (Heteranthera limosa); experiment: Test B flooded paddy test; settings: Heteranthera limosa, 250 g ai/ha, Flood; 0 to 100 scale where 0 is no effect and 100 is complete control; read-out: Ducksalad plant response rating
In short: as §1

rice (Oryra sativa) = experiment: Test B flooded paddy test; settings: Oryza sativa, 250 g ai/ha, Flood; 0 to 100 scale where 0 is no effect and 100 is complete control; read-out: Rice plant response rating
In short: as §1

[3] = tested on: sedge, umbrella (small-flower umbrella sedge, Cyperus difformis); experiment: Test B flooded paddy test; settings: Cyperus difformis, 250 g ai/ha, Flood; 0 to 100 scale where 0 is no effect and 100 is complete control; read-out: Sedge, Umbrella plant response rating
In short: as §1

[4] = tested on: wheat (Triticum aestivum); experiment: Test A postemergence; settings: Triticum aestivum, post-emergence, 240 h, postemergence, read-out: Wheat plant response rating; for plant injury at 125 g/ha: 125 g ai/ha, visual injury on 0 to 100 scale (0 no effect, 100 complete control), approx. 10 d; for plant injury at 500 g/ha: 500 g ai/ha, 0 to 100 scale, 0 is no effect, 100 is complete control
In short: (§2)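 Compounds were formulated in a non-phytotoxic solvent mixture with surfactant and applied as a preemergence directed soil spray after seeding, or sprayed postemergence over plants 2 to 10 cm tall at the one- to two-leaf stage. Evaluation after about 10 d compared treated with untreated controls, using a scale from 0 (no effect) to 100 (complete control).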

[5] = tested on: ryegrass, Italian (Italian ryegrass, Lolium multiflorum); experiment: Test A postemergence; settings: Lolium multiflorum, post-emergence, 240 h, postemergence, read-out: Ryegrass, Italian plant response rating; for pest or weed control at 125 g/ha: 125 g ai/ha, visual injury on 0 to 100 scale (0 no effect, 100 complete control), approx. 10 d; for pest or weed control at 500 g/ha: 500 g ai/ha, 0 to 100 scale, 0 is no effect, 100 is complete control
In short: as §2

Kochia (Kochia scoparia) = experiment: Test A postemergence; settings: Bassia scoparia, post-emergence, 240 h, postemergence, read-out: Kochia plant response rating; for pest or weed control at 125 g/ha: 125 g ai/ha, visual injury on 0 to 100 scale (0 no effect, 100 complete control), approx. 10 d; for pest or weed control at 500 g/ha: 500 g ai/ha, 0 to 100 scale, 0 is no effect, 100 is complete control
In short: as §2

corn (Zea mays) = experiment: Test A postemergence; settings: Zea mays, post-emergence, 240 h, postemergence, read-out: Corn plant response rating; for plant injury at 125 g/ha: 125 g ai/ha, visual injury on 0 to 100 scale (0 no effect, 100 complete control), approx. 10 d; for plant injury at 500 g/ha: 500 g ai/ha, 0 to 100 scale, 0 is no effect, 100 is complete control
In short: as §2

[6] = tested on: pigweed (Amaranthus retroflexus); experiment: Test A postemergence; settings: Amaranthus retroflexus, post-emergence, 240 h, postemergence, read-out: Pigweed plant response rating; for pest or weed control at 125 g/ha: 125 g ai/ha, visual injury on 0 to 100 scale (0 no effect, 100 complete control), approx. 10 d; for pest or weed control at 500 g/ha: 500 g ai/ha, 0 to 100 scale, 0 is no effect, 100 is complete control
In short: as §2

[7] = tested on: giant foxtail (Setaria faberii); experiment: Test A postemergence; settings: Setaria faberi, post-emergence, 240 h, postemergence, read-out: Foxtail, Giant plant response rating; for pest or weed control at 125 g/ha: 125 g ai/ha, visual injury on 0 to 100 scale (0 no effect, 100 complete control), approx. 10 d; for pest or weed control at 500 g/ha: 500 g ai/ha, 0 to 100 scale, 0 is no effect, 100 is complete control
In short: as §2

[8] = tested on: ragweed (common ragweed, Ambrosia elatior); experiment: Test A postemergence; settings: Ambrosia artemisiifolia, post-emergence, 240 h, postemergence, read-out: Ragweed plant response rating; for pest or weed control at 125 g/ha: 125 g ai/ha, visual injury on 0 to 100 scale (0 no effect, 100 complete control), approx. 10 d; for pest or weed control at 500 g/ha: 500 g ai/ha, 0 to 100 scale, 0 is no effect, 100 is complete control
In short: as §2

[9] = tested on: barnyardgrass (Echinochloa crus-galli); experiment: Test A postemergence; settings: Echinochloa crus-galli, post-emergence, 240 h, postemergence, read-out: Barnyardgrass plant response rating; for pest or weed control at 125 g/ha: 125 g ai/ha, visual injury on 0 to 100 scale (0 no effect, 100 complete control), approx. 10 d; for pest or weed control at 500 g/ha: 500 g ai/ha, 0 to 100 scale, 0 is no effect, 100 is complete control
In short: as §2

[10] = tested on: blackgrass (Alopecurus myosuroides); experiment: Test A postemergence; settings: Alopecurus myosuroides, post-emergence, 240 h, postemergence, read-out: Blackgrass plant response rating; for pest or weed control at 125 g/ha: 125 g ai/ha, visual injury on 0 to 100 scale (0 no effect, 100 complete control), approx. 10 d; for pest or weed control at 500 g/ha: 500 g ai/ha, 0 to 100 scale, 0 is no effect, 100 is complete control
In short: as §2

[11] = tested on: Galium (catchweed bedstraw, Galium aparine); experiment: Test A postemergence; settings: Galium, post-emergence, 240 h, postemergence, read-out: Galium plant response rating; for pest or weed control at 125 g/ha: 125 g ai/ha, visual injury on 0 to 100 scale (0 no effect, 100 complete control), approx. 10 d; for pest or weed control at 500 g/ha: 500 g ai/ha, 0 to 100 scale, 0 is no effect, 100 is complete control
In short: as §2

[12] = tested on: barnyardgrass (Echinochloa crus-galli); experiment: Test A preemergence; settings: Echinochloa crus-galli, pre-emergence, 240 h, preemergence, 0 to 100 scale where 0 is no effect and 100 is complete control, read-out: Barnyardgrass plant response rating; for pest or weed control at 125 g/ha: 125 g ai/ha, approx. 10 d; for pest or weed control at 500 g/ha: 500 g ai/ha
In short: as §2

Row | SMILES | pest or weed control at 250 g/ha [1] | pest or weed control at 250 g/ha [2] | pest or weed control at 250 g/ha (rice (Oryra sativa)) | pest or weed control at 250 g/ha [3] | plant injury at 125 g/ha [4] | plant injury at 500 g/ha [4] | pest or weed control at 125 g/ha [5] | pest or weed control at 500 g/ha [5] | pest or weed control at 125 g/ha (Kochia (Kochia scoparia)) | pest or weed control at 500 g/ha (Kochia (Kochia scoparia)) | plant injury at 125 g/ha (corn (Zea mays)) | plant injury at 500 g/ha (corn (Zea mays)) | pest or weed control at 125 g/ha [6] | pest or weed control at 500 g/ha [6] | pest or weed control at 125 g/ha [7] | pest or weed control at 500 g/ha [7] | pest or weed control at 125 g/ha [8] | pest or weed control at 500 g/ha [8] | pest or weed control at 125 g/ha [9] | pest or weed control at 500 g/ha [9] | other results
1 | CC(C)Oc1ccc([C@H]2CNC(=O)[C@@H]2C(=O)Nc2ccccc2F)cc1 [Compound 1135] | 0% | 40% | 0% | 0% | 0% | 0% | 0% | 0% | 0% | 0% | 0% | 0% | 0% | 0% | 0% | 0% | 0% | 0% | 0% | 0% | pest or weed control at 125 g/ha [10]: 0%; pest or weed control at 500 g/ha [10]: 0%; pest or weed control at 125 g/ha [11]: 0%; pest or weed control at 500 g/ha [11]: 0%; pest or weed control at 125 g/ha [12]: 0%; pest or weed control at 500 g/ha [12]: 0%
2 | CN1CC(c2cccc(O)c2)C(C(=O)Nc2cccc(F)c2F)C1=O (stereo not shown) [Compound 1130] | 0% | 0% | 0% | 0% | 0% | 0% | 0% | 0% | 0% | 0% | 0% | 0% | 0% | 0% | 0% | 30% | 0% | 0% | 0% | 20% | pest or weed control at 125 g/ha [10]: 0%; pest or weed control at 500 g/ha [10]: 0%; pest or weed control at 125 g/ha [11]: 0%; pest or weed control at 500 g/ha [11]: 0%; pest or weed control at 125 g/ha [12]: 0%; pest or weed control at 500 g/ha [12]: 0%
